According to ChEMBL document CHEMBL3885861, “Open TG-GATES”:

Species on record: Rattus norvegicus
Test: Open TG-GATES - Regimen: Single
Assay type: toxicity, organism-based, Sprague-Dawley
Parameters: regimen Single, gender Male, age 6 weeks
Details: in vivo, po, route gavage; for TC / TG / TP / gamma-GTP / ALT / AST / CRE / Ca / DBIL / GLC / K / LDH / Na / PL / RALB / TBIL / Cl / ALP: tissue Plasma; for Bas / Eos / Fbg / Hb / Ht / Lym / MCHC / MCV / Mono / PT / Plat / RBC / WBC / APTT: tissue Blood; for KIDNEY_L / KIDNEY_R / KIDNEY_TOTAL: tissue Kidney; for LIVER: tissue Liver
[1] = 240 mg/kg, 3 h, dose level Middle
[2] = 240 mg/kg, 6 h, dose level Middle
[3] = 240 mg/kg, 9 h, dose level Middle
[4] = 240 mg/kg, 24 h, dose level Middle
[5] = 800 mg/kg, 3 h, dose level High
[6] = 800 mg/kg, 6 h, dose level High
[7] = 800 mg/kg, 9 h, dose level High
[8] = 800 mg/kg, 24 h, dose level High

What does the source list for COc1ccc([C@@H]2Sc3ccccc3N(CCN(C)C)C(=O)[C@@H]2OC(C)=O)cc1 [DILTIAZEM]?
TC (80 mg/kg, 24 h, dose level Low): 78.2 mg/dL; TG (80 mg/kg, 24 h, dose level Low): 67.8 mg/dL; TP (80 mg/kg, 24 h, dose level Low): 5.5 g/dL; gamma-GTP (80 mg/kg, 24 h, dose level Low): 1 IU/L; TERMINAL_BW [1]: 186.7 g; Bas [1]: 0%; Eos [1]: 0.8%; Fbg [1]: 284.8 mg/dL; Hb [1]: 12.6 g/dL; Ht [1]: 38.9%; Lym [1]: 75%; MCHC [1]: 32.3%; MCV [1]: 65.9 fL; Mono [1]: 3.2%; PT [1]: 14.7 s; Plat [1]: 119.4 x10_4/uL; RBC [1]: 588.8 x10_4/ul; WBC [1]: 87.8 x10_2/uL; KIDNEY_L [1]: 0.9 g; KIDNEY_R [1]: 0.9 g; KIDNEY_TOTAL [1]: 1.7 g; LIVER [1]: 8.4 g; ALT [1]: 45.2 IU/L; AST [1]: 84 IU/L; CRE [1]: 0.2 mg/dL; Ca [1]: 10.8 mg/dL; DBIL [1]: 0.012 mg/dL; GLC [1]: 186.4 mg/dL; K [1]: 4.4 meq/L; LDH [1]: 70.4 IU/L; Na [1]: 142 meq/L; PL [1]: 136.8 mg/dL; RALB [1]: 2.5 g/dL; TBIL [1]: 0.03 mg/dL; TC [1]: 75 mg/dL; TG [1]: 58 mg/dL; TP [1]: 5.2 g/dL; gamma-GTP [1]: 1 IU/L; TERMINAL_BW [2]: 187.5 g; Bas [2]: 0%; Eos [2]: 0.8%; Fbg [2]: 303.8 mg/dL; Ht [2]: 40.7%; Lym [2]: 80%; MCHC [2]: 32%; MCV [2]: 67.1 fL; Mono [2]: 3%; PT [2]: 14.7 s; Plat [2]: 120.8 x10_4/uL; RBC [2]: 608.2 x10_4/ul; WBC [2]: 79.2 x10_2/uL; KIDNEY_L [2]: 0.9 g; KIDNEY_R [2]: 0.8 g; KIDNEY_TOTAL [2]: 1.7 g; LIVER [2]: 8.1 g; ALT [2]: 44.8 IU/L; AST [2]: 73.4 IU/L; CRE [2]: 0.2 mg/dL; Ca [2]: 10.9 mg/dL; Cl [2]: 106.6 meq/L; DBIL [2]: 0.014 mg/dL; GLC [2]: 182.8 mg/dL; K [2]: 4.2 meq/L; LDH [2]: 54.4 IU/L; Na [2]: 142.8 meq/L; PL [2]: 153.6 mg/dL; RALB [2]: 2.6 g/dL; TBIL [2]: 0.034 mg/dL; TC [2]: 86.2 mg/dL; TG [2]: 47.2 mg/dL; TP [2]: 5.3 g/dL; gamma-GTP [2]: 1.2 IU/L; TERMINAL_BW [3]: 182 g; APTT [3]: 17.3 s; Bas [3]: 0.2%; Eos [3]: 0.8%; Fbg [3]: 305.8 mg/dL; Hb [3]: 12.9 g/dL; Ht [3]: 40.1%; Lym [3]: 78.6%; MCHC [3]: 32.2%; MCV [3]: 67 fL; Mono [3]: 2.6%; PT [3]: 14.8 s; Plat [3]: 121.1 x10_4/uL; RBC [3]: 599.4 x10_4/ul; WBC [3]: 83.9 x10_2/uL; KIDNEY_L [3]: 0.9 g; KIDNEY_R [3]: 0.9 g; KIDNEY_TOTAL [3]: 1.7 g; LIVER [3]: 7.9 g; ALT [3]: 41.8 IU/L; AST [3]: 71.8 IU/L; CRE [3]: 0.1 mg/dL; Ca [3]: 10.7 mg/dL; Cl [3]: 105.6 meq/L; DBIL [3]: 0.012 mg/dL; GLC [3]: 171.6 mg/dL; K [3]: 4.1 meq/L; LDH [3]: 50.8 IU/L; Na [3]: 143 meq/L; PL [3]: 150.4 mg/dL; RALB [3]: 2.5 g/dL; TBIL [3]: 0.028 mg/dL; TC [3]: 82 mg/dL; TG [3]: 45.8 mg/dL; TP [3]: 5.2 g/dL; gamma-GTP [3]: 1 IU/L; TERMINAL_BW [4]: 196.9 g; Bas [4]: 0%; Eos [4]: 1%; Fbg [4]: 271.8 mg/dL; Hb [4]: 13 g/dL; Ht [4]: 39.6%; Lym [4]: 75.6%; MCHC [4]: 32.9%; MCV [4]: 64.6 fL; Mono [4]: 2.8%; PT [4]: 14.8 s; Plat [4]: 120 x10_4/uL; RBC [4]: 614.2 x10_4/ul; WBC [4]: 85.8 x10_2/uL; KIDNEY_L [4]: 0.9 g; KIDNEY_R [4]: 0.9 g; KIDNEY_TOTAL [4]: 1.8 g; LIVER [4]: 9.5 g; ALT [4]: 51 IU/L; AST [4]: 76.2 IU/L; CRE [4]: 0.2 mg/dL; Ca [4]: 11.2 mg/dL; Cl [4]: 106.8 meq/L; DBIL [4]: 0.018 mg/dL; GLC [4]: 173.6 mg/dL; K [4]: 4.2 meq/L; LDH [4]: 82.4 IU/L; Na [4]: 144.4 meq/L; PL [4]: 150.4 mg/dL; RALB [4]: 2.7 g/dL; TBIL [4]: 0.022 mg/dL; TC [4]: 81.2 mg/dL; TG [4]: 95.8 mg/dL; TP [4]: 5.5 g/dL; gamma-GTP [4]: 1.2 IU/L; TERMINAL_BW [5]: 189.3 g; Bas [5]: 0%; Eos [5]: 0.4%; Fbg [5]: 277.6 mg/dL; Hb [5]: 12.7 g/dL; Ht [5]: 39.2%; Lym [5]: 69.6%; MCHC [5]: 32.5%; MCV [5]: 65.1 fL; Mono [5]: 4.4%; PT [5]: 14.6 s; Plat [5]: 121.1 x10_4/uL; RBC [5]: 601.6 x10_4/ul; WBC [5]: 95.2 x10_2/uL; KIDNEY_L [5]: 0.8 g; KIDNEY_R [5]: 0.9 g; KIDNEY_TOTAL [5]: 1.7 g; LIVER [5]: 8.3 g; ALT [5]: 52.6 IU/L; AST [5]: 92 IU/L; CRE [5]: 0.2 mg/dL; Ca [5]: 10.7 mg/dL; Cl [5]: 103.8 meq/L; DBIL [5]: 0.008 mg/dL; GLC [5]: 193 mg/dL; K [5]: 4.4 meq/L; LDH [5]: 64.4 IU/L; Na [5]: 140.8 meq/L; PL [5]: 137.2 mg/dL; RALB [5]: 2.5 g/dL; TBIL [5]: 0.028 mg/dL; TC [5]: 76.8 mg/dL; TG [5]: 48.4 mg/dL; TP [5]: 5.2 g/dL; gamma-GTP [5]: 1 IU/L; TERMINAL_BW [6]: 185.7 g; APTT [6]: 17.5 s; Bas [6]: 0.4%; Eos [6]: 0.8%; Fbg [6]: 311 mg/dL; Hb [6]: 13.3 g/dL; Ht [6]: 41.5%; Lym [6]: 77.6%; MCHC [6]: 32.1%; MCV [6]: 66 fL; Mono [6]: 3.2%; PT [6]: 14.7 s; Plat [6]: 126.6 x10_4/uL; RBC [6]: 629 x10_4/ul; WBC [6]: 95.6 x10_2/uL; KIDNEY_L [6]: 0.8 g; KIDNEY_R [6]: 0.8 g; KIDNEY_TOTAL [6]: 1.7 g; LIVER [6]: 7.8 g; ALT [6]: 45 IU/L; AST [6]: 74.6 IU/L; CRE [6]: 0.2 mg/dL; Ca [6]: 10.7 mg/dL; DBIL [6]: 0.008 mg/dL; GLC [6]: 176 mg/dL; K [6]: 4 meq/L; LDH [6]: 59.2 IU/L; Na [6]: 143 meq/L; PL [6]: 158.8 mg/dL; RALB [6]: 2.5 g/dL; TBIL [6]: 0.032 mg/dL; TC [6]: 91.8 mg/dL; TG [6]: 40.6 mg/dL; TP [6]: 5.2 g/dL; gamma-GTP [6]: 1 IU/L; TERMINAL_BW [7]: 185.3 g; Bas [7]: 0%; Eos [7]: 0.8%; Fbg [7]: 316.2 mg/dL; Hb [7]: 12.6 g/dL; Ht [7]: 38.6%; Lym [7]: 74.8%; MCHC [7]: 32.6%; MCV [7]: 62.9 fL; Mono [7]: 2.8%; PT [7]: 14.7 s; Plat [7]: 132.9 x10_4/uL; RBC [7]: 613 x10_4/ul; WBC [7]: 97 x10_2/uL; KIDNEY_L [7]: 0.8 g; KIDNEY_R [7]: 0.8 g; KIDNEY_TOTAL [7]: 1.6 g; LIVER [7]: 7.2 g; ALP [7]: 1763.8 IU/L; ALT [7]: 48.4 IU/L; AST [7]: 81.2 IU/L; CRE [7]: 0.2 mg/dL; Ca [7]: 10.4 mg/dL; Cl [7]: 105.8 meq/L; DBIL [7]: 0.01 mg/dL; GLC [7]: 170.2 mg/dL; K [7]: 4.2 meq/L; LDH [7]: 53.6 IU/L; Na [7]: 142.4 meq/L; PL [7]: 144.8 mg/dL; RALB [7]: 2.6 g/dL; TBIL [7]: 0.026 mg/dL; TC [7]: 78.4 mg/dL; TG [7]: 59 mg/dL; TP [7]: 5.3 g/dL; gamma-GTP [7]: 1.2 IU/L; TERMINAL_BW [8]: 195.5 g; Bas [8]: 0%; Eos [8]: 0.8%; Fbg [8]: 299 mg/dL; Ht [8]: 39.9%; Lym [8]: 76.6%; MCHC [8]: 33%; MCV [8]: 64.4 fL; Mono [8]: 4.4%; PT [8]: 15 s; Plat [8]: 125.7 x10_4/uL; RBC [8]: 621.2 x10_4/ul; WBC [8]: 83.8 x10_2/uL; KIDNEY_L [8]: 0.9 g; KIDNEY_R [8]: 0.9 g; KIDNEY_TOTAL [8]: 1.7 g; LIVER [8]: 9.3 g; ALP [8]: 2052.4 IU/L; ALT [8]: 41.2 IU/L; AST [8]: 66.6 IU/L; CRE [8]: 0.2 mg/dL; Ca [8]: 11.1 mg/dL; Cl [8]: 107.6 meq/L; DBIL [8]: 0.02 mg/dL; GLC [8]: 168.6 mg/dL; K [8]: 4.3 meq/L; LDH [8]: 87.2 IU/L; Na [8]: 144 meq/L; PL [8]: 144.8 mg/dL; RALB [8]: 2.7 g/dL; TBIL [8]: 0.018 mg/dL; TC [8]: 77.4 mg/dL; TG [8]: 108.6 mg/dL; TP [8]: 5.6 g/dL; gamma-GTP [8]: 1 IU/L
